Measurements: US12297190B2, “Modulators of STING (stimulator of interferon genes)” (PFIZER INC., priority 2019, dated 2025)
Counter-ions that a name gives are not always drawn.

Experiments:
[1] = molecular target: T1, STING (Homo sapiens, UniProt Q86WV6, G230A/H232R/R293Q/R71H); assay: Phosphorylation of IRF3: THP-1 cell ELISA; type: cell-based; conditions: THP-1 cells, 3 hours incubation, phospho-IRF3 ELISA; read-out: THP-1 CELL P-IRF3 EC50
T1 construct: host or cells: THP-1 and THP-1 Lucia ISG cells
Procedure: Phosphorylation of IRF3: THP-1 Cell ELISA
STING activation results in recruitment of TBK1 and phosphorylation of IRF3 transcription factor before induction of type I interferons. THP-1 cells (InvivoGen) were grown in RPMI media plus 2 mM L-glutamine, 10% fetal bovine serum, and 0.5% Pen-Strep. 10^4 cells were seeded in 96-well plates and incubated overnight 37° C., 5% CO2. Compounds serial diluted compounds in media (final 0.5% DMSO) were added to the cells and incubated for an additional 3 hours. After incubation, the plates were centrifuged at 2000 rpm for 5 min. The cells were then lysed in 100 μl RIPA buffer and vortexed for 30 minutes at room temperature. 25 μl of lysate was then transferred to clear polystyrene High Bind plates that had been previously coated with mouse anti-human IRF-3 capture antibody (BD Pharmigen), and allowed to incubate at 4° C. for 16 hours. The plates were then washed and incubated with rabbit anti-phospho-IRF3 detection antibody (Cell Signaling Technologies) for 1.5 hours at room temperature. Finally, an HRP-linked secondary antibody (Cell Signaling Technologies) was added for 30 min before the Glo Substrate Reagent (R&D Systems) was used generate the luminescent signal. The signal was measured using a Perkin-Elmer Envision microplate reader. Data were normalized to “% effect” with a positive control STING agonist that was known to maximize the phosphorylated IRF3 signal and the negative control was DMSO.

[2] = molecular target: T1, STING; assay: Interferon-β induction: THP-1 Lucia ISG reporter cell line; type: cell-based; conditions: THP-1 Lucia ISG cells, 24 hours incubation, luciferase reporter; read-out: THP-1 Lucia ISG Cells IFN-β EC50
Procedure: Interferon-β Induction: THP-1 ISG Reporter Cell Line
THP-1 Lucia™ ISG cells (InvivoGen) express the secreted luciferase “Lucia” reporter gene under the control of an IRF-inducible composite promotor comprised of five interferon response elements. THP-1 Lucia™ ISG cells were grown in RPMI media plus 2 mM L-glutamine, 10% fetal bovine serum, and 0.5% Pen-Strep. Hygromycin B and Zeocin were present to maintain stable transfection. 10^4 cells were seeded in 96-well plates and incubated overnight 37° C., 5% CO2. 50 μL of serial diluted compounds in media (final 0.5% DMSO) was and incubated for an additional 24 hours. After incubation, the plates were centrifuged at 2000 rpm for 10 min. 50 μl of cell culture supernatant of each well was transferred to a white, opaque 96-well plate. One pouch of QUANTI-Luc™ (InvivoGen) powder was prepared in 25 mL of endotoxin-free water and 100 μL of prepared warm QUANTI-Luc solution were added to each well containing the supernatant. The luminescence signal was measured using a Perkin-Elmer Envision microplate reader. Data were normalized to “% effect” with a positive control STING agonist that was known to maximize the luciferase signal and the negative control DMSO.

[3] = molecular target: R232-STING (Homo sapiens, UniProt Q86WV6, H232R); assay: biochemical
Sequence of R232-STING (Q86WV6 155-341 H232R): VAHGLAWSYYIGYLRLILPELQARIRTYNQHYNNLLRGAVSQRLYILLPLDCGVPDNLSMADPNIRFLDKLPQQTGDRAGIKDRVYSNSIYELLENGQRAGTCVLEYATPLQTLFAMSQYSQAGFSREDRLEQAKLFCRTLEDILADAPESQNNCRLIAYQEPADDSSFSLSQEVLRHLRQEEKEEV

T1 sequence (Q86WV6 whole entry R71H/G230A/H232R/R293Q): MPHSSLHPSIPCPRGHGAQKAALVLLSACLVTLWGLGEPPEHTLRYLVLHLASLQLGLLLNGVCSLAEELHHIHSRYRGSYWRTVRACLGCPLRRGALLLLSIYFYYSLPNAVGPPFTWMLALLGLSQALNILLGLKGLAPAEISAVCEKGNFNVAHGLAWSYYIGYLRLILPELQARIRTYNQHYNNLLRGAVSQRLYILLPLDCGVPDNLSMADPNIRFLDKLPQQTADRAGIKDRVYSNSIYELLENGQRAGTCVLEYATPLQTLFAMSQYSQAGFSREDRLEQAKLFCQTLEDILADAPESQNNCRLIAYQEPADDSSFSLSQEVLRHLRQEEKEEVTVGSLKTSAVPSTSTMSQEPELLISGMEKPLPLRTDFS

CCn1nc(C)cc1-c1n[nH]c(-c2cc(C(N)=O)cc3c2cnn3CCN2C[C@H](C)OC[C@@H]2C)n1 [Example M04]
EC50 [1]: 28000 nM | EC50 [2]: 28600 nM | Ki [3]: 306 nM

CCn1nc(C)cc1-c1n[nH]c(-c2cc(C(N)=O)cc3c2cnn3CC(=O)O)n1 [Example P01, {6-carbamoyl-4-[3-(1-ethyl-3-methyl-1H-pyrazol-5-yl)-1H-1,2,4-triazol-5-yl]-1H-indazol-1-yl}acetic acid]
EC50 [1]: 75600 nM | EC50 [2]: ≥ 100000 nM | Ki [3]: 241 nM

CCn1nc(C)c(O)c1-c1nc(-c2nc(C(N)=O)cc3c2cnn3C)n(C)n1 [Example Q01, 4-[3-(1-ethyl-4-hydroxy-3-methyl-1H-pyrazol-5-yl)-1-methyl-1H-1,2,4-triazol-5-yl]-1-methyl-1H-pyrazolo[4,3-c]pyridine-6-carboxamide]
EC50 [1]: 120 nM | EC50 [2]: 140 nM | Ki [3]: 3.2 nM

CCn1nc(C)c(F)c1-c1nc(-c2nc(C(N)=O)cc3c2cnn3C)c(CN)s1 [Example S01, 4-[5-(aminomethyl)-2-(1-ethyl-4-fluoro-3-methyl-1H-pyrazol-5-yl)-1,3-thiazol-4-yl]-1-methyl-1H-pyrazolo[4,3-c]pyridine-6-carboxamide]
EC50 [1]: 1300 nM | EC50 [2]: 2300 nM | Ki [3]: 11.5 nM

CCn1nc(C)cc1-c1nc(-c2nc(C(N)=O)cc3c2cnn3C)c(CN)o1 [Example T01, 4-[5-(aminomethyl)-2-(1-ethyl-3-methyl-1H-pyrazol-5-yl)-1,3-oxazol-4-yl]-1-methyl-1H-pyrazolo[4,3-c]pyridine-6-carboxamide]
EC50 [1]: 980 nM | EC50 [2]: 1460 nM | Ki [3]: 27.7 nM

CCn1ncc(O)c1-c1nc(-c2nc(C(N)=O)cc3c2cnn3C)c(CN)o1 [Example U02]
EC50 [1]: 6500 nM | EC50 [2]: 6200 nM | Ki [3]: 51.6 nM

Cc1nn(CCCO)c(-c2nc(-c3nc(C(N)=O)cc4c3cnn4C)c(CN)o2)c1O [Example U03]
EC50 [1]: 2820 nM | EC50 [2]: 2520 nM | Ki [3]: 29.8 nM

Cc1cc(-c2nc(-c3nc(C(N)=O)cc4c3cnn4C)c(CN)o2)n(CCCO)n1 [Example U04]
EC50 [1]: 1990 nM | EC50 [2]: 1850 nM | Ki [3]: 34.4 nM

Cc1nn(CCO)c(-c2nnc(-c3nc(C(N)=O)cc4c3cnn4C)[nH]2)c1O [Example V01, 4-{5-[4-hydroxy-1-(2-hydroxyethyl)-3-methyl-1H-pyrazol-5-yl]-4H-1,2,4-triazol-3-yl}-1-methyl-1H-pyrazolo[4,3-c]pyridine-6-carboxamide]
EC50 [1]: 890 nM | EC50 [2]: 590 nM | Ki [3]: 6.9 nM

CCn1nc(C)c(O)c1-c1nc(-c2nc(C(N)=O)cc3c2cnn3C)c(CN)s1 [Example X01, (4-(6-carbamoyl-1-methyl-1H-pyrazolo[4,3-c]pyridin-4-yl)-2-(1-ethyl-4-hydroxy-3-methyl-1H-pyrazol-5-yl)thiazol-5-yl)methanaminium formate]
EC50 [1]: 340 nM | EC50 [2]: 380 nM | Ki [3]: 0.6 nM

CCn1nc(C)c(F)c1-c1nc(-c2nc(C(N)=O)cc3c2cnn3CC(CO)CO)n(C)n1 [Example Y01, 4-[3-(1-ethyl-4-fluoro-3-methyl-1H-pyrazol-5-yl)-1-methyl-1H-1,2,4-triazol-5-yl]-1-[3-hydroxy-2-(hydroxymethyl)propyl]-1H-pyrazolo[4,3-c]pyridine-6-carboxamide]
EC50 [1]: 7100 nM | EC50 [2]: 7340 nM | Ki [3]: 27.2 nM

CCn1nc(C)cc1-c1n[nH]c(-c2cc(C(N)=O)cc3c2cnn3CCCC(=O)O)n1 [YY02, 4-{6-carbamoyl-4-[3-(1-ethyl-3-methyl-1H-pyrazol-5-yl)-1H-1,2,4-triazol-5-yl]-1H-indazol-1-yl}butanoic acid]
EC50 [1]: > 100000 nM | EC50 [2]: > 100000 nM | Ki [3]: 84.8 nM

CCn1nc(C)cc1-c1nnc(-c2cc(C(N)=O)cc3c2cnn3CCC(=O)O)[nH]1 [YY03, 3-{6-carbamoyl-4-[5-(1-ethyl-3-methyl-1H-pyrazol-5-yl)-4H-1,2,4-triazol-3-yl]-1H-indazol-1-yl}propanoic acid]
EC50 [1]: > 100000 nM | EC50 [2]: > 100000 nM | Ki [3]: 109 nM

CCn1nc(C)cc1-c1nnc(-c2cc(C(N)=O)cc3c2cnn3CCN(C)C)[nH]1 [YY04, 1-[2-(dimethylamino)ethyl]-4-[5-(1-ethyl-3-methyl-1H-pyrazol-5-yl)-4H-1,2,4-triazol-3-yl]-1H-indazole-6-carboxamide]
EC50 [1]: > 100000 nM | EC50 [2]: > 100000 nM | Ki [3]: > 638 nM

Cc1nn(CCC(=O)O)c(-c2n[nH]c(-c3cc(C(N)=O)cc4c3cnn4C)n2)c1Cl [YY05, 3-{5-[5-(6-carbamoyl-1-methyl-1H-indazol-4-yl)-1H-1,2,4-triazol-3-yl]-4-chloro-3-methyl-1H-pyrazol-1-yl}propanoic acid]
EC50 [1]: > 100000 nM | EC50 [2]: > 100000 nM | Ki [3]: 396 nM

Cc1nn(CCC(=O)O)c(-c2n[nH]c(-c3cc(C(N)=O)cc4c3cnn4C)n2)c1F [YY06, 3-{5-[5-(6-carbamoyl-1-methyl-1H-indazol-4-yl)-1H-1,2,4-triazol-3-yl]-4-fluoro-3-methyl-1H-pyrazol-1-yl}propanoic acid]
EC50 [1]: > 100000 nM | EC50 [2]: > 100000 nM | Ki [3]: 47.1 nM

CCn1nc(C)cc1-c1nnc(-c2cc(C(N)=O)cc3c2cnn3[C@H](C)CN2CCOCC2)[nH]1 [YY07, 4-[5-(1-ethyl-3-methyl-1H-pyrazol-5-yl)-4H-1,2,4-triazol-3-yl]-1-[(2R)-1-(morpholin-4-yl)propan-2-yl]-1H-indazole-6-carboxamide]
EC50 [1]: > 100000 nM | EC50 [2]: > 100000 nM | Ki [3]: 337 nM

CCn1nc(C)cc1-c1nnc(-c2cc(C(N)=O)cc3c2cnn3CCN2CCC(C#N)CC2)[nH]1 [YY09, 1-[2-(4-cyanopiperidin-1-yl)ethyl]-4-[5-(1-ethyl-3-methyl-1H-pyrazol-5-yl)-4H-1,2,4-triazol-3-yl]-1H-indazole-6-carboxamide]
EC50 [1]: > 100000 nM | EC50 [2]: > 100000 nM | Ki [3]: 141 nM

CCn1nc(C)cc1-c1nnc(-c2cc(C(N)=O)cc3c2cnn3CC2(C)CC(OC)CN2C)[nH]1 (stereo not drawn) [YY10, 4-[5-(1-ethyl-3-methyl-1H-pyrazol-5-yl)-4H-1,2,4-triazol-3-yl]-1-[(4-methoxy-1,2-dimethylpyrrolidin-2-yl)methyl]-1H-indazole-6-carboxamide]
EC50 [1]: > 100000 nM | EC50 [2]: > 100000 nM | Ki [3]: 237 nM

CCn1nc(C)cc1-c1nnc(-c2cc(C(N)=O)cc3c2cnn3CCN2CCC(OC)CC2)[nH]1 [YY11, 4-[5-(1-ethyl-3-methyl-1H-pyrazol-5-yl)-4H-1,2,4-triazol-3-yl]-1-[2-(4-methoxypiperidin-1-yl)ethyl]-1H-indazole-6-carboxamide]
EC50 [1]: > 100000 nM | EC50 [2]: > 100000 nM | Ki [3]: 529 nM

CCn1nc(C)c(F)c1-c1n[nH]c(-c2cc(C(N)=O)cc3c2cnn3CCCN)n1 [YY12, 1-(3-aminopropyl)-4-[3-(1-ethyl-4-fluoro-3-methyl-1H-pyrazol-5-yl)-1H-1,2,4-triazol-5-yl]-1H-indazole-6-carboxamide]
EC50 [1]: > 100000 nM | EC50 [2]: > 100000 nM | Ki [3]: 722 nM

CCn1nc(C)cc1-c1nnc(-c2cc(C(N)=O)cc3c2cnn3C2CC3CNCC3C2)[nH]1 (stereo not drawn) [YY13, 4-[5-(1-ethyl-3-methyl-1H-pyrazol-5-yl)-4H-1,2,4-triazol-3-yl]-1-(octahydrocyclopenta[c]pyrrol-5-yl)-1H-indazole-6-carboxamide]
EC50 [1]: > 100000 nM | EC50 [2]: > 100000 nM | Ki [3]: 431 nM
